Tested on: HCC-1143 cells
Details: HCC-1143 FOXM1-KD, doxorubicin
Description: FIG. 17. […] (A) Prostate cancer (22RV1 and LNCaP) cells were treated with indicated concentrations of paclitaxel alone or in combination with STL001 for 24 hrs. (B) Tamoxifen resistance MCF-7 breast cancer cells (TAM-R) were treated with indicated concentrations of Tamoxifen alone or in combination with STL001 for 24 hrs. In all cases, total protein samples were obtained from cells immediately after treatment and analyzed for FOXM1, cleaved caspase-3 levels via immunoblotting, β-actin was used as internal loading control (n=3). (C) Percent (%) dead cells in TAM-R cells treated with indicated concentrations of Tamoxifen alone or in combination with STL001 for 24 hrs. […] (F) HCC 143 cells with stable shRNA-mediated FOXM1 knockdown (KD) were treated with doxorubicin alone or in combination with STL001 for 24 hrs and compared to parental cells under the same treatment conditions. In all cases, total protein samples were obtained from cells immediately after treatment and analyzed for FOXM1, cleaved caspase-3 levels via immunoblotting, β-actin was used as internal loading control (n=3).
Stable FOXM1-expression knockdown in cancer cell: Cells were seeded on commercially available 12-well tissue culture plates to achieve ~40% confluency. […] Transduced cells were selected by their cultivation with puromycin (1.0 μg/mL) for 10 days and then maintained without puromycin as described above.

O=C(Oc1cccc(-c2ccn(-c3nc(Nc4ccccc4)nc(N4CCOCC4)n3)n2)c1)c1ccco1 [STL001]
sensitization effect in FOXM1 deficient cells: absent

Reference: patent US20260217691A1, “FOXM1 INHIBITORS AND THEIR USE IN TREATING CANCERS” (THE BOARD OF TRUSTEES OF THE UNIVERSITY OF ILLINOIS, priority 2022, published 2026)
